In US20230212251A1, “PEPTIDES DERIVED FROM SORTILIN” (UNIVERSITE DE LIMOGES, priority 2019, published 2023):
pIC50: −log10 of the molar value. Read-outs that look alike come from different tables or passages of the source.

What was measured:
Type in all cases: cell-based
[1] = tested on: H3255 adenocarcinoma line (EGFR L858R); assay: Pro-apoptotic effect, real-time IncuCyte Zoom imaging; details: H3255, peptide 1 μM, 96 hours real time
Experimental: (§1) In order to study cell death by apoptosis, the cells are seeded at a concentration of 2000 cells per well in 100 μL of culture medium, in 96-well plates. 24 hours later, the cell medium is removed, then the cells are rinsed once with sterile PBS 1× before adding the culture medium containing the different treatments, including the peptide according to the invention at […], and the reagents necessary for analysis of cell death. These latter are: IncuCyte® Caspase-3/7 Green Reagent (ref: 4440; EssenBio) diluted to 1:1000 in the culture medium; IncuCyte® Annexin V Green Reagent (ref: 4642; EssenBio) diluted to 1:200 diluted in the culture medium. Image acquisition is then carried out by positioning the plates in the IncuCyte Zoom® system (Ref: EssenBio) for 96 hours. Four images per well are then obtained, in high definition, every two hours, with the ×10 objective and the phase-contrast and green channels. These acquisitions are carried out automatically and non-invasively. The data are processed automatically with the IncuCyte Zoom® Live-Cell Analysis System (ref: EssenBio).
(§2) The pro-apoptotic effect of the peptide of sequence SEQ ID NO 7 at the concentration of 1 μM was measured in real time using the IncuCyte Zoom® system for 96 hours on the A549 line, on human fibroblasts (non-cancerous cells), as well as on two lines of adenocarcinomas H3255 and H1975, respectively presenting mutations of EGFR that are sensitive (L858R) and resistant (L858R/T790M) to the tyrosine kinase activity receptor inhibitors (TKI) used in the clinic via activation of two markers of apoptosis, namely annexin V and caspases 3 and 7. […] In fact, the levels of expression of these markers are identical under the conditions treated with the peptide and the control conditions. The peptide could therefore have a specific toxicity to cancer cells.

A549 line = assay: as above; details: A549, peptide 1 μM, 96 hours real time
Experimental: as §1, §2

[2] = tested on: H1975 adenocarcinoma line (EGFR L858R/T790M); assay: as above; details: H1975, peptide 1 μM, 96 hours real time
Experimental: as §1, §2

[3] = tested on: human fibroblasts (non-cancerous cells); assay: as above; details: peptide 1 μM, 96 hours real time, versus control
Experimental: as §1, §2

A549 cell line = assay: Cell survival measured by XTT (Cell Proliferation Kit II); details: XTT dehydrogenase activity, read-out: CI50 (concentration giving 50% inhibition of cell activity)
Experimental: The antineoplastic effect of the synthetic peptide, comprising Tat and a V5 tag of sequence SEQ ID NO 7 was tested on the A549 cell line (adenocarcinoma line having no mutation on the EDFR). A concentration range (0 to 10 μM) of the synthetic peptide of sequence SEQ ID NO 7 according to the invention was incubated for 24, 48 and 72 hours in the cell medium and the dehydrogenase activity thereof (proxy for viability) was measured (Cell Proliferation Kit II (XTT)-Roche) at the end of each incubation, i.e. at 24, 48 and 72 hours. Analysis of the graph representing the activity as a function of the log of the synthetic peptide concentration made it possible to establish CI50 values corresponding to the concentrations for which the peptide results in 50% inhibition of cell activity. These latter are respectively equal to 1.42, 1.52 and 0.57 μM for incubation times of 24, 48 and 72 hours.

cell nuclei = assay: Subcellular distribution by indirect immunofluorescence; details: 2D and 3D confocal imaging
Experimental: The cells are seeded on a 24-well plate on 14 mm diameter glass slides. After each treatment condition, the cells are fixed, either with the complete medium containing paraformaldehyde (PFA) at 3.7% for 20 min at 4° C., or with methanol at −20° C. for 5 min. With methanol the fixation is carried out by dehydration (denaturing of the proteins), while with the aldehydes (formaldehyde) the 3D structure of the protein is preserved (fixing by bridging). The phosphorylations are analyzed after fixing with PFA. After fixing, the cell layer is washed 3 times for 5 minutes with […] PBS. In the case of fixing with PFA, the cells are permeabilized with Triton X-100 at 0.1% in PBS for 10 min at 4° C., then washed again. With regard to fixing with methanol, this confers the advantage of fixing and permeabilizing the cells at the same time. […] Starting from the fixing stage, all the solutions are filtered beforehand over a 0.2 μm filter in order to eliminate the fluorescence artefacts and the background noise. […] Then, three washes of 5 min in PBS are carried out, before incubation of the secondary antibody coupled with an Alexa fluor 488® (green fluorescence) (Table 4) for 1 hour at ambient temperature in the PBS-BSA solution. […]

cells = assay: Cell penetration test via western blot; details: 0 to 500 nM in complete culture medium, 24 hours' treatment
Experimental: 3. Extraction of the proteins under denaturing conditions Extraction of the whole proteins is carried out directly on the cell layers, after eliminating the supernatants and rinsing the cells in PBS 1×, or even on cell pellets previously stored at −80° C. It is carried out by incubating the cells with the Laemmli lysis buffer (62.5 mM Tris-HCl ref: 11814273001 ROCHE, pH 6.8, 2% SDS ref: L-4509, Sigma-Aldrich, 25% glycerol ref: G5516, Sigma-Aldrich) made up with 1% (v/v) protease inhibitor cocktail (ref: P8340-1ML, Sigma-Aldrich) and 1% (v/v) phosphatase inhibitor cocktail (ref: P0044-1ML, Sigma-Aldrich), in the proportions […] of buffer for 1.10^6 cells for 30 min over ice. In the case of extraction on the cell layer, a scraper (ref: 179693PK, Nunc, ThermoFisher) is used to collect the cells in the lysis buffer. Lysis is then completed by ultrasound parametered at 60 Hz, amplitude 2 s, for 1 minute (ref: SONIVCX-130-220, VWR). The lysates are then centrifuged at 17,000×g (ref: 75002442, Sorvall, ThermoFisher) for 20 min at 4° C., the supernatant containing the proteins is transferred to a sterile 1.5 mL tube (ref: 0030120086, Eppendorf), and the proteins are assayed by the Bradford method.
5. […] The concentration of the polyacrylamide gels varies from 8 to 15% as a function of the molecular weight of the proteins to be separated and analyzed. […]

Question: Which “level of annexin V (marker of apoptosis)” value [1] does the source give for “GRKKRRQRRRPPQVLIVKKYVCGGRFLVHRYSVLQQHAEANGVDGVDALDTASHTNKSGYHDDSDEDLLEGKPIPNPLLGLDST [SEQ ID NO 7]” here?
Answer: increase

Question: What about the “level of caspases 3 and 7 (marker of apoptosis)” value [1] of the same sequence?
Answer: increase

Question: And the “level of annexin V (marker of apoptosis)” value (A549 line)?
Answer: increase

Question: What about the “level of caspases 3 and 7 (marker of apoptosis)” value (A549 line) of the same sequence?
Answer: increase

Question: What about the “level of annexin V (marker of apoptosis)” value [2] of the same sequence?
Answer: increase

Question: And the “level of caspases 3 and 7 (marker of apoptosis)” value [2]?
Answer: increase

Question: What about the “activation of annexin V (marker of apoptosis)” value [3] of the same sequence?
Answer: does not seem to lead to activation

Question: And the “activation of caspases 3 and 7 (marker of apoptosis)” value [3]?
Answer: does not seem to lead to activation

Question: What about the pIC50 (A549 cell line; A549, 24 hours incubation) of the same sequence?
Answer: 5.85

Question: What about the pIC50 (A549 cell line; A549, 48 hours incubation) of the same sequence?
Answer: 5.82

Question: What about the pIC50 (A549 cell line; A549, 72 hours incubation) of the same sequence?
Answer: 6.24

Question: And the “subcellular distribution of the peptide (anti-V5 immunofluorescence, DAPI)” value (cell nuclei)?
Answer: punctiform nuclear distribution

Question: What about the “quantity of intracellular peptide detected in the cell lysate (anti-V5 western blot)” value (cells) of the same sequence?
Answer: dose-dependent peptide penetration
